The results in this text go back to patent publication US10238635B2, “N-carbamoylated urethane for treating a neuroinflammatory disease” (Kyungpook National University Industry—Academic Cooperation …, priority 2016, dated 2019).

In series [1] the test system is BV-2 microglial cells. Nature of the series: LPS-induced NO production in BV-2 microglial cells (Griess, nitrite). Conditions: LPS 100 ng/ml; for inhibition at 10 µM: Mus musculus, BV-2 microglial cells, 10 μM compound, LPS-increased NO production = 100%. It is filed as cell-based, murine. Here is the method: (§1) BV-2 cells, a murine microglial cell line, were cultured in Dulbecco's modified Eagle's medium (DMEM) containing 5% heat-inactivated FBS and 50 μg/ml gentamicin at 37° C. Rat microglial HAPI cells and mouse primary astrocytes were cultured in DMEM (10% FBS, 10 U/ml penicillin, 10 μg/ml streptomycin) at 37° C. All animals and experimental procedures were approved by the Institutional Review Board of Kyungpook National University School of Pharmacy and were carried out in accordance with the NIH Guide for the Care and Use of Laboratory Animals. All animals were maintained under temperature- and humidity-controlled conditions.
The production of nitric oxide (NO) was estimated by measuring the amount of nitrite, which is a NO metabolite. The BV-2 cells (40,000 cells/well in 96-well plates) were treated with 100 ng/ml of LPS in the presence or absence of the compounds from the library. At the end of a 24 hour incubation period, 50 μl of the cell culture media was mixed with an equal volume of a Griess reagent in each well. The light absorbance was measured at 540 nm, while a standard curve was generated using sodium nitrite.
(§2) Specifically, the BV-2 cells were cultured in 96-well plates and stimulated with LPS at a concentration of 100 ng/ml. The BV-2 cells stimulated with LPS were treated with 3,500 low molecular weight substances (FIG. 1).
While an increased NO production by LPS is designated as 100%, a suppressed amount of NO production by each derivative of Compound 1 is presented by its respective percentage.
On the technique in general: The Griess reaction detects nitrite, a stable product of nitric oxide.

Series [2] has as its system RAW264.7 macrophage cells. Nature of the series: LPS-induced NO release in RAW264.7 cells. The conditions noted are these: various concentrations, 24 hours. The format is cell-based. As to the method: (§3) The present inventors confirmed the anti-neuroinflammatory effect of Compound 1, which was identified in Example 1, in the HAPI rat microglial cells and the RAW264.7 macrophage cells. The cells were cultured in 96-well plates, followed by treatment with various concentrations of Compound 1 with LPS, respectively. After 24 hours of such a treatment, NO release was examined.

A further series concerns BV-2 cells. Nature of the series: Cell viability, MTT assay. It is filed as cell-based, murine. Here is the method: Cell viability was assessed using MTT assay. After treatment with LPS and the compounds, the culture solution was aspirated and removed. MTT (0.5 mg/ml in PBS) was added to the cells and incubated at 37° C. for 4 hours. The resulting formazan was dissolved in DMSO. The absorbance was determined at 570 nm using a microplate reader.
as §2
A general note: Formazan colour is commonly taken as a measure of viable cells.

The subject of series [3] is LPS-induced mouse neuroinflammation model. Nature of the series: LPS-induced mouse neuroinflammation model (Iba-1 immunostaining, real-time RT-PCR of brain). It is filed as in vivo, C57BL/6 mice. The conditions noted are these: 72 h after LPS. Here is the method:
(§4) Total RNA was extracted from microglial cells or brain tissues using TRIZOL reagent (Invitrogen, Carlsbad, Calif., USA). Reverse transcription (RT) was performed using Superscript II reverse transcriptase (Invitrogen) and Oligo (dT) primers. Traditional polymerase chain reaction (PCR) amplification was performed using specific primer sets at annealing temperature 55-60° C. for 20-30 cycles. PCR was performed using C1000 Touch Thermal Cycler. For the PCR product analysis, 10 μl of each PCR reaction was electrophoresed on 1% agarose gel and detected under ultraviolet light.
(§5) Real-time RT-PCR was performed using Perfect Real-Time One Step SYBR Primer Script RT-PCR Kit (Takara Bio, Otsu, Shiga, Japan).
LPS was intraperitoneally administered according to a conventionally known method for producing neuroinflammatory mouse model. All experiments were performed on C57BL/6 mice aged 9-11 weeks, and the animals were supplied from Koatech. In each experiment, the animals were divided into four groups (Group 1, vehicle-treated group; Group 2, Compound 1-treated group; Group 3, LPS & vehicle-treated group; Group 4, LPS & Compound 1-treated group). Compound 1 (2 mg/kg) was dissolved in saline containing 5% DMSO and 40% polyethylene glycol and administered intraperitoneally daily for 4 days. LPS (5 mg/kg) induced a neuroinflammatory animal model by intraperitoneally administering its single dose on the second day.
For histological analysis, 72 hours after the administration of LPS, the animals were anesthetized and perfused transcardially first with saline and then with 4% paraformaldehyde. The activity of microglial cells was evaluated using Iba-1 staining. At least three animals were included in each experimental group. […]
The mice were then sacrificed, and the Iba-1 levels were analyzed as molecular markers of microglia activation (FIG. 6B).
The Iba-1-stained cells whose intensity values were above an arbitrarily defined threshold were counted from each of three brain regions, including the cortex, hippocampus, and substantia nigra.
Background: Quantitative PCR measures a nucleic acid by following its amplification.

Series [4] concerns HAPI rat microglial cells. Nature of the series: LPS-induced NO release in HAPI cells. It is filed as cell-based. Conditions: various concentrations, 24 hours. As to the method: as §1, §3
In series [5] the test system is BV-2 microglial cells. Nature of the series: RT-PCR of LPS-induced pro-inflammatory gene expression in BV-2 cells. Conditions: pre-treatment. The format is cell-based, murine. As to the method:
as §4, §5
The primer sequences were designed based on published cDNA sequences (See Table 1).
Next, the effect of Compound 1 on the LPS-induced expression of pro-inflammatory mediators was examined in the BV-2 microglial cells.

Series [6] is described as follows: Brain distribution and half-life after intraperitoneal administration. Conditions: 2 mg/kg, previous study by the inventors. The format is in vivo.
Another series deals with astrocytes. Nature of the series: NO, TNF-α production and Ym-1 expression in astrocytes. It is filed as cell-based, mouse. As to the method: as §1
The mouse primary microglial cells were cultured under mild conditions according to known methods. In brief, the forebrains of 3-5 day-old C57BL/6 mice were harvested and mechanically pulverized using a nylon mesh. The cells were seeded onto a poly-L-lysine-coated flasks and then cultured. After in vitro culture of 10-14 days, the microglial cells were isolated from the mixed glial cultures by shaking for 6 hours at 200 rpm. Astrocytes remained attached to the bottom of the culture flask were used for the following experiments. 3. High Throughput Screening
The production of nitric oxide (NO) was estimated by measuring the amount of nitrite, which is a NO metabolite. The BV-2 cells (40,000 cells/well in 96-well plates) were treated with 100 ng/ml of LPS in the presence or absence of the compounds from the library. […] The light absorbance was measured at 540 nm, while a standard curve was generated using sodium nitrite.
The BV-2 cells or astrocytes were treated with LPS and Compound 1, followed by culturing for 24 hours. The TNF-α levels in the culture media were measured using a rat monoclonal anti-mouse TNF-α antibody as a primary antibody and a goat anti-mouse TNF-α antibody as a secondary antibody.
Total RNA was extracted from microglial cells or brain tissues using TRIZOL reagent (Invitrogen, Carlsbad, Calif., USA). […] For the PCR product analysis, 10 μl of each PCR reaction was electrophoresed on 1% agarose gel and detected under ultraviolet light. […]

[7] abbreviates: 2 mg/kg i.p., LPS 5 mg/kg, real-time RT-PCR.

Molecules are shown by their SMILES. “Also recorded” adds a separate entry of the source.

In the series on BV-2 microglial cells [1], `CCC(OC(=O)N(Cc1ccccc1)C(=O)Nc1ccc(OC)c(OC)c1)c1cc(-c2ccc(OC(C)(C)C(=O)O)cc2)no1` (centres unmarked) [3,4-dimethoxy, 2-(4-(5-(1-((benzyl((3,4-dimethoxymethylphenyl)carbamoyl)carbamoyl)oxy)propyl)isoxazol-3-yl)phenoxy)-2-methylpropanoic acid] showed an inhibition at 10 µM of 60.7%.

On to `CCC(OC(=O)N(Cc1ccccc1)C(=O)Nc1ccc2c(c1)OCO2)c1cc(-c2ccc(OC(C)(C)C(=O)O)cc2)no1` (centres unmarked) [3,4-methylenedioxy], for which the inhibition at 10 µM in the series with BV-2 microglial cells [1] was 74.6%.

`CCC(OC(=O)N(Cc1ccccc1)C(=O)Nc1cc(OC)cc(OC)c1)c1cc(-c2ccc(OC(C)(C)C(=O)O)cc2)no1` (centres unmarked) [3,5-dimethoxy]: the inhibition at 10 µM with BV-2 microglial cells [1] came to 56.7%.

Compound `CCC(OC(=O)N(Cc1ccccc1)C(=O)Nc1ccc(C(F)(F)F)cc1)c1cc(-c2ccc(OC(C)(C)C(=O)O)cc2)no1` (centres unmarked) [4-trifluoromethyl, 2-(4-(5-(1-((benzyl((4-trifluoromethylphenyl)carbamoyl)carbamoyl)oxy)propyl)isoxazol-3-yl)phenoxy)-2-methylpropanoic acid] displayed an inhibition at 10 µM in the series on BV-2 microglial cells [1] of 52.7%.

Turning to `CCC(OC(=O)N(Cc1ccccc1)C(=O)Nc1ccccc1)c1cc(-c2ccc(OC(C)(C)C(=O)O)cc2)no1` (centres unmarked) [Compound 1, 2-(4-(5-(1-((benzyl(phenylcarbamoyl)carbamoyl)oxy)propyl)isoxazol-3-yl)phenoxy)-2-methylpropanoic acid], in series [2], the “LPS-induced NO release” value was “inhibits the LPS-induced NO release in the microglial and macrophage cells in a dose-dependent manner”. Further, the “inhibition of NO production in microglial cells (high-throughput screening)” value in the series with BV-2 microglial cells [1] (BV-2 cells) is “effectively inhibiting NO production”. The compound also gave an inhibition at 10 µM in the series with BV-2 microglial cells [1] of 73.4%. Further, the cytotoxicity result with BV-2 cells is recorded as “low in cytotoxicity”. For the same compound, in series [3] (2 mg/kg i.p. daily for 4 days, LPS 5 mg/kg i.p., cortex, hippocampus, substantia nigra), the “LPS-induced microglial activation (Iba-1 positive cells)” value is on record as “significantly reduced; also recorded: effectively blocked”. Moreover, in series [3] (setting [7]), the “expression level of IL-1β mRNA in brain” value is “significantly diminished” and the “expression level of TNF-α mRNA in brain” value is “significantly diminished”. Besides, the “LPS-induced NO release” value in series [4] is “inhibits the LPS-induced NO release in the microglial and macrophage cells in a dose-dependent manner”. Also, in the series on BV-2 microglial cells [5], the “expression of IL-1β gene” value is listed as “significantly reduced”, the “expression of TNF-α gene” value was “significantly reduced” and the “expression of iNOS gene” value is on record as “significantly reduced”. The same compound registered a brain distribution in series [6] of 0.19 µg/h/mL. The same compound gave a half-life in series [6] (brain, ip) of 5.23 h. Also, the “IL-4-induced Ym-1 expression in astrocytes” value with astrocytes (IL-4) is “increasing”. Moreover, in the series with astrocytes (LPS), the “LPS-induced NO production in astrocytes” value is “inhibited” and the “LPS-induced TNF-α production in astrocytes” value is listed as “inhibited”.

As to `CCC(OC(=O)N(Cc1ccccc1)C(=O)Nc1ccccc1OC)c1cc(-c2ccc(OC(C)(C)C(=O)O)cc2)no1` (centres unmarked) [Compound 2-methoxy, 2-(4-(5-(1-((benzyl((2-methoxyphenyl)carbamoyl)carbamoyl)oxy)propyl)isoxazol-3-yl)phenoxy)-2-methylpropanoic acid], at 10 µM the inhibition with BV-2 microglial cells [1] was 20.9%.

On to `CCC(OC(=O)N(Cc1ccccc1)C(=O)Nc1cccc(OC)c1)c1cc(-c2ccc(OC(C)(C)C(=O)O)cc2)no1` (centres unmarked) [Compound 3-methoxy, 2-(4-(5-(1-((benzyl((3-methoxyphenyl)carbamoyl)carbamoyl)oxy)propyl)isoxazol-3-yl)phenoxy)-2-methylpropanoic acid], for which, in the series with BV-2 microglial cells [1], at 10 µM the inhibition was 25.6%.

For the compound `CCC(OC(=O)N(Cc1ccccc1)C(=O)Nc1ccc(Cl)cc1)c1cc(-c2ccc(OC(C)(C)C(=O)O)cc2)no1` (centres unmarked) [Compound 4-chloro], the inhibition at 10 µM with BV-2 microglial cells [1] was found to be 67.8%.

As for `CCC(OC(=O)N(Cc1ccccc1)C(=O)Nc1ccc(OC)cc1)c1cc(-c2ccc(OC(C)(C)C(=O)O)cc2)no1` (centres unmarked) [Compound 4-methoxy, 2-(4-(5-(1-((benzyl((4-methoxyphenyl)carbamoyl)carbamoyl)oxy)propyl)isoxazol-3-yl)phenoxy)-2-methylpropanoic acid], in the series on BV-2 microglial cells [1], 10 µM produced 46.7% inhibition.

For `CCC(OC(=O)N(Cc1ccccc1)C(=O)Nc1ccc(C)cc1)c1cc(-c2ccc(OC(C)(C)C(=O)O)cc2)no1` (centres unmarked) [Compound 4-methyl, 2-(4-(5-(1-((benzyl((4-methylphenyl)carbamoyl)carbamoyl)oxy)propyl)isoxazol-3-yl)phenoxy)-2-methylpropanoic acid], the inhibition at 10 µM in the series on BV-2 microglial cells [1] came out at 46.7%.

`CCCCc1ccc(NC(=O)N(Cc2ccccc2)C(=O)OC(CC)c2cc(-c3ccc(OC(C)(C)C(=O)O)cc3)no2)cc1` (centres unmarked) [Compound 4-n-butyl, 2-(4-(5-(1-((benzyl((4-n-butylmethylphenyl)carbamoyl)carbamoyl)oxy)propyl)isoxazol-3-yl)phenoxy)-2-methylpropanoic acid] had an inhibition at 10 µM in the series with BV-2 microglial cells [1] of 58.3%.

The inhibition is the change of the read-out against control, counted positive when it falls. A higher inhibition goes with a strong effect. The half-life is the time in which the quantity being followed falls by half. A higher half-life goes with slow loss.
